Key:
Format in all cases: functional, cell-free
[1] = Antioxidant activity against Cu2+-induced lipid peroxidation in human plasma LDL assessed as lysophosphatidylcholine formation at 10 umol/L preincubated for 1 hr before Cu2+ challenge measured after 360 mins
[2] = Antioxidant activity against Cu2+-induced lipid peroxidation in human plasma LDL assessed as maximal compound concentration at 20 umol/L preincubated for 1 hr before Cu2+ challenge measured after 180 mins relative to compound present at 0 min
[3] = Antioxidant activity against Cu2+-induced lipid peroxidation in human plasma LDL assessed as maximal compound concentration at 10 umol/L preincubated for 1 hr before Cu2+ challenge measured after 150 mins relative to compound present at 0 min
[4] = Antioxidant activity against Cu2+-induced lipid peroxidation in human plasma LDL assessed as maximal compound concentration at 10 umol/L preincubated for 1 hr before Cu2+ challenge measured after 90 mins relative to compound present at 0 min
[5] = Antioxidant activity against Cu2+-induced lipid peroxidation in human plasma LDL assessed as maximal compound concentration at 5 umol/L preincubated for 1 hr before Cu2+ challenge measured after 60 mins relative to compound present at 0 min
[6] = Antioxidant activity against Cu2+-induced lipid peroxidation in human plasma LDL assessed as conjugated diene formation at 20 umol/L preincubated for 1 hr before Cu2+ challenge measured after 150 mins
[7] = Antioxidant activity against Cu2+-induced lipid peroxidation in human plasma LDL assessed as vitamin E consumption at 20 umol/L preincubated for 1 hr before Cu2+ challenge measured after 60 mins
[8] = Antioxidant activity against Cu2+-induced lipid peroxidation in human plasma LDL assessed as vitamin E consumption at 20 umol/L preincubated for 1 hr before Cu2+ challenge measured after 15 mins
[9] = Antioxidant activity against Cu2+-induced lipid peroxidation in human plasma LDL assessed as maximal compound concentration at 10 umol/L preincubated for 1 hr before Cu2+ challenge measured after 15 mins relative to compound present at 0 min
[10] = Antioxidant activity against Cu2+-induced lipid peroxidation in human plasma LDL assessed as conjugated diene formation at 10 umol/L preincubated for 1 hr before Cu2+ challenge measured after 120 mins
[11] = Antioxidant activity against Cu2+-induced lipid peroxidation in human plasma LDL assessed as conjugated diene formation at 5 umol/L preincubated for 1 hr before Cu2+ challenge measured after 60 mins
[12] = Antioxidant activity against Cu2+-induced lipid peroxidation in human plasma LDL assessed as conjugated diene formation at 10 umol/L preincubated for 1 hr before Cu2+ challenge measured after 180 mins
[13] = Antioxidant activity against Cu2+-induced lipid peroxidation in human plasma LDL assessed as vitamin E consumption at 10 umol/L preincubated for 1 hr before Cu2+ challenge measured after 30 mins
[14] = Antioxidant activity against Cu2+-induced lipid peroxidation in human plasma LDL assessed as maximal compound concentration at 20 umol/L preincubated for 1 hr before Cu2+ challenge measured after 210 mins relative to compound present at 0 min
[15] = Antioxidant activity against Cu2+-induced lipid peroxidation in human plasma LDL assessed as vitamin E consumption at 5 umol/L preincubated for 1 hr before Cu2+ challenge measured after 180 mins
[16] = Antioxidant activity against Cu2+-induced lipid peroxidation in human plasma LDL assessed as maximal compound concentration at 20 umol/L preincubated for 1 hr before Cu2+ challenge measured after 45 mins relative to compound present at 0 min
[17] = Antioxidant activity against Cu2+-induced lipid peroxidation in human plasma LDL assessed as conjugated diene formation preincubated for 1 hr before Cu2+ challenge
[18] = Antioxidant activity against Cu2+-induced lipid peroxidation in human plasma LDL assessed as vitamin E consumption at 20 umol/L preincubated for 1 hr before Cu2+ challenge measured after 180 mins
[19] = Antioxidant activity against Cu2+-induced lipid peroxidation in human plasma LDL assessed as lysophosphatidylcholine formation at 20 umol/L preincubated for 1 hr before Cu2+ challenge measured after 120 mins
[20] = Antioxidant activity against Cu2+-induced lipid peroxidation in human plasma LDL assessed as conjugated diene formation at 20 umol/L preincubated for 1 hr before Cu2+ challenge measured after 120 mins
[21] = Antioxidant activity against Cu2+-induced lipid peroxidation in human plasma LDL assessed as maximal compound concentration at 20 umol/L preincubated for 1 hr before Cu2+ challenge measured after 150 mins relative to compound present at 0 min
[22] = Antioxidant activity against Cu2+-induced lipid peroxidation in human plasma LDL assessed as maximal compound concentration at 5 umol/L preincubated for 1 hr before Cu2+ challenge measured after 150 mins relative to compound present at 0 min
[23] = Antioxidant activity against Cu2+-induced lipid peroxidation in human plasma LDL assessed as lysophosphatidylcholine formation at 5 umol/L preincubated for 1 hr before Cu2+ challenge measured after 120 mins
[24] = Antioxidant activity against Cu2+-induced lipid peroxidation in human plasma LDL assessed as maximal compound concentration at 10 umol/L preincubated for 1 hr before Cu2+ challenge measured after 60 mins relative to compound present at 0 min
[25] = Antioxidant activity against Cu2+-induced lipid peroxidation in human plasma LDL assessed as conjugated diene formation at 20 umol/L preincubated for 1 hr before Cu2+ challenge measured after 360 mins
[26] = Antioxidant activity against Cu2+-induced lipid peroxidation in human plasma LDL assessed as vitamin E consumption at 20 umol/L preincubated for 1 hr before Cu2+ challenge measured after 210 mins
[27] = Antioxidant activity against Cu2+-induced lipid peroxidation in human plasma LDL assessed as maximal compound concentration at 5 umol/L preincubated for 1 hr before Cu2+ challenge measured after 45 mins relative to compound present at 0 min
[28] = Antioxidant activity against Cu2+-induced lipid peroxidation in human plasma LDL assessed as lysophosphatidylcholine formation at 10 umol/L preincubated for 1 hr before Cu2+ challenge measured after 90 mins
[29] = Antioxidant activity against Cu2+-induced lipid peroxidation in human plasma LDL preincubated for 1 hr before Cu2+ challenge
[30] = Antioxidant activity against Cu2+-induced lipid peroxidation in human plasma LDL assessed as vitamin E consumption at 5 umol/L preincubated for 1 hr before Cu2+ challenge measured after 90 mins
[31] = Antioxidant activity against Cu2+-induced lipid peroxidation in human plasma LDL assessed as conjugated diene formation at 10 umol/L preincubated for 1 hr before Cu2+ challenge measured after 210 mins
[32] = Antioxidant activity against Cu2+-induced lipid peroxidation in human plasma LDL assessed as lysophosphatidylcholine formation at 10 umol/L preincubated for 1 hr before Cu2+ challenge measured after 270 mins
[33] = Antioxidant activity against Cu2+-induced lipid peroxidation in human plasma LDL assessed as vitamin E consumption at 5 umol/L preincubated for 1 hr before Cu2+ challenge measured after 270 mins
[34] = Antioxidant activity against Cu2+-induced lipid peroxidation in human plasma LDL assessed as vitamin E consumption at 5 umol/L preincubated for 1 hr before Cu2+ challenge measured after 45 mins

## CC(C)(Sc1cc(C(C)(C)C)c(O)c(C(C)(C)C)c1)Sc1cc(C(C)(C)C)c(O)c(C(C)(C)C)c1
[1]
  Activity: 19.2%
[2]
  Activity: 34.4%
[3]
  Activity: 19.8%
[4]
  Activity: 27.2%
[5]
  Activity: 118%
[6]
  Activity: 1.1%
[7]
  Activity: 5.5%
[8]
  Activity: 38.2%
[9]
  Activity: 86.6%
[10]
  Activity: 39.4%
[11]
  Activity: 4.1%
[12]
  Activity: 77.3%
[13]
  Activity: 17.8%
[14]
  Activity: 38.3%
[15]
  Activity: 0%
[16]
  Activity: 87.7%
[17]
  Activity: Dose-dependent effect
[18]
  Activity: 0%
[19]
  Activity: 1%
[20]
  Activity: 0.2%
[21]
  Activity: 41.2%
[22]
  Activity: 28.6%
[23]
  Activity: 10.6%
[24]
  Activity: 34.1%
[25]
  Activity: 2.3%
[26]
  Activity: 0%
[27]
  Activity: 114%
[28]
  Activity: 0%
[29]
  Activity: 5.8 µM/L
[30]
  Activity: 0%
[31]
  Activity: 76.3%
[32]
  Activity: 12.9%
[33]
  Activity: 0%
[34]
  Activity: 7.5%

— ChEMBL document CHEMBL1137802, “Specific antioxidant activity of caffeoyl derivatives and other natural phenolic compounds: LDL protection against oxidation and decrease in the proinflammatory lysophosphatidylcholine production” (J Nat Prod, 2001)
